# According to patent publication US20100255580A1, “Differentiation of Human Embryonic Stem Cells” (LIFESCCAN, INC., priority 2007, published 2010):
# Test system: H9 embryonic stem cells
# Type: cell-based, human
# Settings: low serum, on MEFS
# Procedure: Controls for each group included cells plated on […]-coated dishes and cultured in MEF-conditioned medium or cells plated on MEFs and cultured in ES medium. All groups contained three biological replicates and each biological replicate was repeated on two separate gene chips.
# Sample preparation, hybridization, and image analysis were performed according to the Affymetrix Human Genome U133 Plus 2.0 Array. Following normalization and a log transformation, data analysis was performed using OmniViz® software (MA) and […] (VizXLabs, WA). Significant differences in gene expression between the samples were evaluated using analysis of variance and an F-test with adjusted P-value (Benjamini and
# Hochberg correction) of ≦b 0.05. Only genes with a present call in at least one group were included in the analysis.
substance,measurement,value
Activin A: a member of the TGFβ superfamily; R&D Systems; Group 2 = Activin A (100 ng/ml),"log intensity, bHLH factor Hes4 (LOC57801)",2.4
same,"log intensity, beta3GalNAcT-1 mRNA for globoside synthase, clone: type 2",−0.0984
same,"log intensity, bone morphogenetic protein 2 (BMP2)",5.029
same,"log intensity, bone morphogenetic protein 5 (BMP5)",0.6148
same,"log intensity, bromodomain and PHD finger containing, 3",0.3694
same,"log intensity, c-mer proto-oncogene tyrosine kinase (MERTK)",3.617
same,"log intensity, cDNA FLJ11390 fis, clone HEMBA1000561",0.3644
same,"log intensity, cDNA FLJ13221 fis, clone NT2RP4002075",1.082
same,"log intensity, cDNA FLJ13392 fis, clone PLACE1001280",1.169
same,"log intensity, cDNA FLJ13810 fis, clone THYRO1000279",−0.8532
same,"log intensity, cDNA FLJ30081 fis, clone BGGI12000693",1.125
same,"log intensity, cDNA FLJ34035 fis, clone FCBBF2004788",−2.008
same,"log intensity, cDNA FLJ36116 fis, clone TESTI2022338",6.155
same,"log intensity, cDNA: FLJ22731 fis, clone HSI15841",2.241
same,"log intensity, cDNA: FLJ22808 fis, clone KAIA2925",2.414
same,"log intensity, cDNA: FLJ23067 fis, clone LNG04993",0.8825
same,"log intensity, calmegin (CLGN)",3.111
same,"log intensity, cardiac ankyrin repeat protein (CARP)",1.987
same,"log intensity, cartilage linking protein 1",0.9872
same,"log intensity, caspase-like apoptosis regulatory protein 2 (clarp)",5.2167
same,"log intensity, chemokine receptor CXCR4 mRNA",5.669
same,"log intensity, cleft lip and palate associated transmembrane protein 1, clone MGC: 10593",0.5567
same,"log intensity, clone FLC1492 PRO3121 mRNA",−3.392
same,"log intensity, clone HB-2 mRNA sequence",1.252
same,"log intensity, clone IMAGE: 3509274, mRNA, partial cds",0.7945
same,"log intensity, clone IMAGE: 4047715, mRNA",1.527
same,"log intensity, clone MGC: 14801",1.511
same,"log intensity, clone MGC: 24252 IMAGE: 3932604",1.593
same,"log intensity, clone TUA8 Cri-du-chat region mRNA",1.497
same,"log intensity, collagen, type V, alpha 1",1.666
same,"log intensity, complement component 5 (C5)",1.596
same,"log intensity, core histone macroH2A2.2 (MACROH2A2)",3.662
same,"log intensity, cystatin C (amyloid angiopathy and cerebral hemorrhage) (CST3)",3.52
same,"log intensity, deiodinase, iodothyronine, type III (DIO3)",4.229
same,"log intensity, dickkopf (Xenopus laevis) homolog 1 (DKK1)",1.09
same,"log intensity, dual specificity phosphatase 4, clone MGC: 3713",5.601
same,"log intensity, dynein, axonemal, light polypeptide 4 (DNAL4)",1.8494
same,"log intensity, dystrophin (muscular dystrophy, Duchenne and Becker types) (DMD), transcript variant Dp427p2",3.044
same,"log intensity, ectodermal dysplasia 1, anhidrotic (ED1)",3.078
same,"log intensity, elongation of very long chain fatty acids (FEN1Elo2, SUR4Elo3, yeast)-like 2 (ELOVL2)",1.508
same,"log intensity, endothelin receptor type A (EDNRA), mRNA",3.552
same,"log intensity, endothelin receptor type A (r1027)",1.954
same,"log intensity, enolase 2, (gamma, neuronal) (ENO2)",3.926
same,"log intensity, eomesodermin (Xenopus laevis) homolog (EOMES)",4.898
same,"log intensity, erythrocyte membrane protein band 4.9 (dematin) (EPB49)",0.9238
same,"log intensity, fasciculation and elongation protein zeta 1 (zygin I) (FEZ1), transcript variant 1",2.203
same,"log intensity, forkhead box F2 (FOXF2)",−1.115
same,"log intensity, gelsolin (amyloidosis, Finnish type) (GSN)",4.45
same,"log intensity, glucose-6-phosphate transporter (G6PT) gene, G6PT-Dt allele",0.4077
same,"log intensity, glutathione S-transferase A2 (GSTA2)",−0.4221
same,"log intensity, glycoprotein M6A",2.3278
same,"log intensity, guanylate cyclase activator 1B (retina) (GUCA1B)",0.685
same,"log intensity, heparan sulfate proteoglycan 2 (perlecan)",−0.9721
same,"log intensity, hexabrachion (tenascin C, cytotactin) (HXB)",2.854
same,"log intensity, high mobility group protein-R",0.09529
same,"log intensity, hypothetical protein BC017868 (LOC159091)",0.4016
same,"log intensity, hypothetical protein DKFZp434F0318",0.3947
same,"log intensity, hypothetical protein DKFZp434F2322",1.421
same,"log intensity, hypothetical protein DKFZp564B052",2.003
same,"log intensity, hypothetical protein FLJ10312",4.892
same,"log intensity, hypothetical protein FLJ11155",−0.7126
same,"log intensity, hypothetical protein FLJ11560",1.807
same,"log intensity, hypothetical protein FLJ12538 similar to ras-related protein RAB17",4.734
same,"log intensity, hypothetical protein FLJ12666 (r758)",1.405
same,"log intensity, hypothetical protein FLJ12666 (r998)",4.028
same,"log intensity, hypothetical protein FLJ12838",3.152
same,"log intensity, hypothetical protein FLJ21195 similar to protein related to DAC and cerberus",0.764
same,"log intensity, hypothetical protein FLJ22471",3.1349
same,"log intensity, hypothetical protein FLJ23091",3.042
same,"log intensity, hypothetical protein FLJ23514",5.247
same,"log intensity, hypothetical protein FLJ32835",3.947
same,"log intensity, hypothetical protein MGC2865, clone MGC: 20246",−1.506
same,"log intensity, insulin-like growth factor binding protein 6 (IGFBP6)",3.304
same,"log intensity, keratin 19 (KRT19)",5.919
same,"log intensity, kidney-specific membrane protein NX-17",3.45
same,"log intensity, lipase mRNA",0.5585
same,"log intensity, lymphocyte antigen 6 complex, locus E (LY6E)",4.926
same,"log intensity, mRNA for KIAA0876 protein",0.07325
same,"log intensity, mRNA for KIAA1161 protein",1.981
same,"log intensity, mRNA for MSX-2",1.945
same,"log intensity, mRNA for protein-tyrosine kinase",1.042
same,"log intensity, mRNA; cDNA DKFZp434E082",2.943
same,"log intensity, mRNA; cDNA DKFZp434K0621",2.214
same,"log intensity, mRNA; cDNA DKFZp434P228",3.113
same,"log intensity, mRNA; cDNA DKFZp547H236",2.081
same,"log intensity, mRNA; cDNA DKFZp564K1672",6.335
same,"log intensity, mRNA; cDNA DKFZp586G2120",0.523
same,"log intensity, mRNA; cDNA DKFZp586L0120",1.28
same,"log intensity, mRNA; cDNA DKFZp762H185",3.792
same,"log intensity, mandaselin long form",1.2296
same,"log intensity, matrix metalloproteinase 15 (membrane-inserted) (MMP15)",1.8336
same,"log intensity, microseminoprotein, beta-(MSMB)",0.1699
same,"log intensity, mitogen-activated protein kinase 10 (MAPK10)",2.286
same,"log intensity, nuclear factor of kappa light polypeptide gene enhancer in B-cells inhibitor, alpha",5.478
same,"log intensity, nuclear receptor subfamily 0, group B, member 1 (NR0B1) (r534)",1.279
same,"log intensity, nuclear receptor subfamily 0, group B, member 1 (NR0B1) (r1079)",3.298
same,"log intensity, nudix (nucleoside diphosphate linked moiety X)-type motif 4",5.689
same,"log intensity, olfactory receptor, family 52, subfamily A, member 1 (OR52A1)",0.6365
same,"log intensity, oxoglutarate dehydrogenase (lipoamide) (OGDH)",−0.3853
same,"log intensity, partial LHX9 gene for LIM-homeobox 9, 3UTR",−0.1342
same,"log intensity, partial mRNA for putative nuclear factor",2.679
same,"log intensity, phosphatidylinositol-4-phosphate 5-kinase, type I, beta (PIP5K1B)",2.467
same,"log intensity, phosphofructokinase, liver (PFKL)",2.704
same,"log intensity, pilin-like transcription factor (PILB)",4.382
same,"log intensity, pleiomorphic adenoma gene-like 1",0.2215
same,"log intensity, plexin A2",2.742
same,"log intensity, polycythemia rubra vera 1; cell surface receptor (PRV1)",0.9374
same,"log intensity, porcupine (MG61)",3.681
same,"log intensity, protease, serine, 4 (trypsin 4, brain)",3.359
same,"log intensity, protein S (alpha) (PROS1)",1.7883
same,"log intensity, protocadherin 10",2.986
same,"log intensity, putative 47 kDa protein (r448)",1.052
same,"log intensity, putative 47 kDa protein (r770)",0.8617
same,"log intensity, putative sterol reductase SR-1 (TM7SF2)",2.478
same,"log intensity, ras homolog gene family, member B",0.07189
same,"log intensity, receptor tyrosine kinase-like orphan receptor 2 (ROR2)",3.056
same,"log intensity, regulator of G protein signalling 5 (RGS5)",3.951
same,"log intensity, ret finger protein-like 2 (RFPL2)",0.5039
same,"log intensity, secreted apoptosis related protein 2 (SARP2)",5.743
same,"log intensity, secreted frizzled-related protein 1",4.218
same,"log intensity, sialyltransferase (STHM)",1.503
same,"log intensity, signal transducer and activator of transcription 3 (acute-phase response factor)",0.5602
same,"log intensity, singed (Drosophila)-like (sea urchin fascin homolog like) (SNL)",5.254
same,"log intensity, sodium dependent phosphate transporter isoform NaPi-IIb",0.232
same,"log intensity, solute carrier (SLC25A18)",−1.1
same,"log intensity, solute carrier family 9 (sodiumhydrogen exchanger), isoform 5 (SLC9A5)",1.196
same,"log intensity, stanniocalcin 1 (STC1), mRNA",5.28
same,"log intensity, stanniocalcin 1 (r1113)",5.701
same,"log intensity, testican 3 (HSAJ1454)",1.551
same,"log intensity, testis enhanced gene transcript (BAX inhibitor 1)",1.317
same,"log intensity, thyrotropin-releasing hormone (TRH)",−0.2584
same,"log intensity, transcription factor 2, hepatic; LF-B3; variant hepatic nuclear factor (TCF2), transcript variant a",2.543
same,"log intensity, transcriptional activator of the c-fos promoter (CROC4)",3.225
same,"log intensity, transmembrane tyrosine kinase mRNA",1.932
same,"log intensity, tropomodulin, clone MGC: 3643",1.464
same,"log intensity, tryptase, alpha",3.764
same,"log intensity, tudor repeat associator with PCTAIRE 2",3.275
same,"log intensity, tyrosine 3-monooxygenasetryptophan 5-monooxygenase activation protein, eta polypeptide (r705)",4.608
same,"log intensity, tyrosine 3-monooxygenasetryptophan 5-monooxygenase activation protein, eta polypeptide (r966)",4.926
